US9249184B2, “Cardiac-specific protein targeting domain” (University of Pittsburgh—of the Commonwealth System of …, priority 2010, dated 2016)
Ends that are not written are not given here.

Assays:
myocardial infarct = experiment: Murine infarct model (left artery ligation); type: in vivo, Balb/c mice; settings: 8K-NBD study; 5 mg/Kg/injection i.p. post-op day 0, 1, 2; day 7; vs PBS
From the text: The following protocol was used and kept consistent from one set of experiments to another and between groups. Female, Balb/c, 10-20 week old mice were used for these set of studies. Female mice were chosen because of the ability to house 5/cage, as opposed to male mice (4/cage) and more importantly because female mice are able to tolerate cardiac insults better with lower post-operative mortality (19). Mice were anesthetized with intraperitoneal (i.p.) injection of 2.5% Avertin (a mixture of 15.5 ml tert-amyl alcohol to 25 grams of 2-2-2 Tribromoethanol-stock solution diluted to 2.5% concentration with PBS) at a dose of 15 μl/gm of body weight. Adequate anesthetic level was assessed by lack of response to toe-pinch and lack of a gag reflex. Mice were intubated, using direct visualization of the vocal chords, with a 22 G cannula and placed on a Harvard rodent ventilator apparatus. Tube placement was confirmed by symmetric expansion of the thoracic cavity. Mice were ventilated with ˜0.1 cc/breath tidal volume at a rate of 110 breaths/minute. […]
Mice were euthanized on post-operative day 7. […] The three sections were H&E stained, light microscopy photographs taken, and area of infarct in each section mapped out using computer software Metamorph and expressed as a percent of the whole heart. […]

apoptosis in heart = experiment: TUNEL staining of heart cross-sections in the murine infarct model; type: in vivo, Balb/c mice; settings: 8K-NBD study; 5 mg/Kg/injection i.p. post-op day 0, 1, 2; day 7
Procedure: A cross-section from each heart was taken and apoptosis assessed by TUNEL staining. The nuclei were stained with Dapi, and the number of TUNEL positive nuclei expressed as a percentage of total nuclei in each field. The whole heart cross-section was taken into consideration by taking 5-6 contiguous, non-overlapping sections from each heart. […] FIG. 18 illustrates the TUNEL staining data in a quantitative manner.

[1] = in vitro phage display; cited from earlier work
[2] = in vitro phage display; cited from earlier work; remark: listed apart in the source
human heart tissue = experiment: Ex vivo transduction of human explanted heart slices (confocal microscopy); settings: separate explanted heart; 500 ul of 1 mM solution; 30 mins at 37° C.
Procedure: Human explanted hearts were obtained from the operating rooms of UPMC at the time of ongoing heart transplants. Heart tissue was dissected from the proximal part or the base of the heart to avoid the more scarred, infarcted, distal tissue. Small 1-2 mm thick slices of heart tissue were taken and incubated with CTP-6CF (500 ul of a 1 mM solution) or PBS, for 30 and 60 mins, at 37° C./5% CO2. At the end of the incubation period, the heart slices were washed in PBS 6 times, fixed in 2% paraformaldehyde for 4 hrs at room temperature, followed by 30% sucrose overnight at 4° C. Next day the tissue was frozen in liquid nitrogen-chilled isopentane and stored 58
at −80° C., for later cryosectioning, cross-staining with DRAQ5 and confocal microscopy. Confocal micrographs were obtained avoiding the edges because of the necessary damage associated with dissecting the heart tissue pieces. Confocal micrographs were taken 3-4 cell layers away from any edges.
To investigate if this transduction was indeed peptide specific, and not secondary to increased membrane leakiness resulting from tissue being ischemic, we incubated thin, 1-2 mm thick, heart slices, from a separate explanted heart, in only 6CF in PBS, CTP-6CF, RAN-6CF as well as 6CF labeled 6-Arginine, a known PTD. We also incubated heart slices with Evans blue dye (EBD) to assess for membrane leakiness. […]

[3] = test system: heart, liver, lung, spleen, kidney, skeletal muscle and brain; experiment: In vivo tissue transduction by biotinylated peptides coupled to Streptavidin-Alexa488 (confocal microscopy); parameters: species or system Balb/c mice; settings: 10 mg/Kg i.v.; 30 minutes post-injection
Procedure: In vivo imaging studies. The initial in vivo targeting studies were performed using CTP-6CF. Female Balb/C mice were injected retro-orbitally with CTP-6CF (25 mg/Kg) and euthanized 15 minutes later, Heart cross-sections were stained for actin using phalloidin Alexa-647 (Molecular Probes, A22287) and stained for laminin using a rabbit anti-laminin antibody followed by a goat anti-rabbit Cy3 (Jackson ImmunoResearch, 111-167-003) secondary antibody. Five non-overlapping sections were taken from each heart for quantification of green fluorescence (CTP-6CF) expressed as a percentage of total area (blue; stained for actin). A control peptide (CON; […]; SEQ ID NO:15), picked from the original, unselected M13 phage library, CTP and 8-Lysine (8K, a homopolymer of lysine), a known cationic protein transduction domain, were synthesized in a biotinylated form. 200 mM of biotinylated CTP, CON and 8K, or equivalent volume of PBS, were incubated with 10 ul of Streptavidin-Alexa488 (2 ng/ml; Molecular Probes, 532354) for 2 hours at room temperature. Female Balb/c mice were intravenously (retro-orbitally) injected with peptides at a dose of 10 mg/Kg and then euthanized 30 minutes post-injection. […] For confocal microscopy, laser intensities/gains were set using negative control (PBS injected) heart tissue to minimize background fluorescence. […]

For “KKKKKKKK-TTLDASALQME (KKKKKKKKTTLDASALQME) [8K-mutNBD]”, the “heart-weight to body-weight ratio” value (myocardial infarct) was “did not differ”, the infarct size (myocardial infarct) was “worse” and the “TUNEL positive (apoptotic) nuclei” value (apoptosis in heart) was “lesser number of apoptotic nuclei”.
In the case of APWHLSSQYSRT [CTP], the “affinity for binding to two specific sulfated carbohydrates” value [1] is given as “high affinity” and the “affinity for binding to apatite-based, bone-like minerals” value [2] is given as “high affinity”.
In the case of `O=C(O)c1ccc2c(c1)C1(OC2=O)c2ccc(O)cc2Oc2cc(O)ccc21` [6CF, 6-carboxyfluorescene], the “uptake in human heart slices ex vivo (confocal microscopy)” value (human heart tissue) is reported as “occasional cells showing fluorescence”.
For “CON-SA488: biotinylated control peptide CON (ARPLEHGSDKAT) coupled to Streptavidin-Alexa488 (also: biotinylated, coupled to streptavidin-Alexa488)”, the “uptake in any organ” value [3] was “did not show appreciable uptake”.
For `Cc1cc(-c2ccc(/N=N/c3ccc4c(S(=O)(=O)[O-])cc(S(=O)(=O)[O-])c(N)c4c3O)c(C)c2)ccc1/N=N/c1ccc2c(S(=O)(=O)[O-])cc(S(=O)(=O)[O-])c(N)c2c1O.[Na+].[Na+].[Na+].[Na+]` [EBD, Evans blue dye], the “uptake in human heart slices ex vivo (confocal microscopy)” value (human heart tissue) was “did not show any fluorescence”.
